# Laboratory results reported in patent US20220162559A1, “MYOCARDIAL ORGANOIDS AND METHODS OF MAKING AND USES THEREOF” (CLEMSON UNIVERSITY RESEARCH FOUNDATION, priority 2018, published 2022).
# Legend:
# Assay type in all cases: cell-based, human
# [1] = tested on: cardiac infarct organoids; test: Contraction analysis of beating organoids (contraction amplitude, beat rate), infarct organoids
# Description: For the cardiac infarction protocol, microtissues (about150 μm radius on D0) were placed in a hypoxia chamber within the incubator at about 10% O2 with 1 μM of norepinephrine (NE, A7257, Sigma) after 4 days of pre-culture. Media was changed with fresh NE every 2 days for the length of the experiment (10 days). For extended validation studies, 20 ng/ml of human recombinant transforming growth factor beta 1 (TGF-β1, ab50036, Abcam, Cambridge, UK), 10 nM of JQ1 (SML1524, Sigma), and 2 ng/ml of human recombinant vascular endothelial growth factor (VEGF, CC-4114A, Lonza) was added to the media every 2 days for infarct organoids for the length of the experiment (10 days).
# (§1) Videos of spontaneously beating spheroids from each group were recorded immediately out of the incubator (to reduce temperature induced changes in beating) for each condition using a Carl Zeiss Axiovert A1 Inverted Microscope and Zen 2011 software (Zeiss, Gottingen, Germany). Threshold edge-detecting in ImageJ software (NIH—US National Institutes of Health) was used on high contrast spheroid picture series and graphed to realize beating profiles of fractional area change, from which contraction amplitude was calculated. Contraction amplitudes were calculated as the percent change in fractional area change amplitude between contraction and relaxation. Beat rate was calculated as the number of beats per second.
# [2] = tested on: control cardiac organoids; test: Contraction analysis of beating organoids (contraction amplitude, beating), control organoids
# Description: Non-adhesive agarose hydrogel molds were used as microtissue fabrication molds made from commercial master micro-molds from Microtissues, Inc (Providence, R.I.). Working cell suspensions of each cell type were used at about 4.0×10^6 cells/ml to make organoid cell ratio mixtures of about 50% hiPSC-CMs and about 50% non-myocyte (4:2:1 ratio of FBs, HUVECs, hADSCs, respectively) and mixed with 1 volume media for a final concentration of about 2.0×10^6 cells/ml. hiPSC-CM only spheroids were fabricated using 100% hiPSC-CMs at a final concentration of about 2.0×10^6 cells/ml. Approximately 75 μl of the cell suspension was pipetted into each agarose mold. […]
# as §1
# [3] = tested on: cardiac infarct organoids; test: TUNEL apoptotic staining of organoid sections; conditions: 1 μM, 48 hours of exposure
# Description: The Roche In Situ Cell Death Detection Kit (Sigma) was used to visualize apoptotic cells in frozen sections of cardiac organoids based on the Roche protocol. Briefly, cardiac organoid frozen sections were fixed with 4% paraformaldehyde in PBS for 20 min at room temperature. Following washing in PBS for 30 minutes, samples were incubated in a permeabilization solution (0.1% Triton X-100 and 0.1% sodium citrate in PBS) for 2 minutes on ice. Then 50 μl of the TUNEL reaction mixture were added to samples and incubated at 37° C. for 1 hr. After washing in PBS (2 times at 5 min), nuclei were counterstained with DAPI (Molecular Probes/Invitrogen) diluted in PBS for 15 min at ambient temperature. Following the final wash procedure (PBS, 2 times at 5 min), glass cover slips were added to the slides using Fluoro-Gel (Electron Microscopy Sciences). TCS SP5 AOBS laser scanning confocal microscope (Leica Microsystems) was used for imaging.
# [4] = tested on: cardiac infarct organoids; test: Immunofluorescent staining of organoid sections (vimentin, alpha sarcomeric actinin, αSMA, collagen), infarct organoids
# Description: (§2) Freshly collected organoids were flash frozen in Tissue-Tek OCT compound (Sakura, Torrance, Calif.). Embedded spheroids were cryosectioned into 7 μm thickness layers onto glass slides for immunofluorescence staining. The sections were fixed with pre-cooled acetone (−20° C.) for 10 min. After washing (2 times at 5 min) in PBS with 0.1% Triton X-100 (PBST) (Sigma), blocking buffer was made with 10% serum corresponding to host species of secondary antibody in PBST and added to sections for 1 hr at room temperature. Sections were incubated with primary antibody diluted in PBST (1:200) overnight at 4° C. or 2 hrs at room temperature: mouse anti-alpha smooth muscle actin (A5228, Sigma), mouse anti-alpha sarcomeric actinin (ab9465, Abcam), rabbit anti-collagen type I (ab34710, Abcam), rabbit anti-vimentin (ab92547, Abcam), rabbit anti-von Willebrand factor (ab6994, Abcam). After washing in PBST (2 times at 5 min), sections were incubated with complement secondary antibodies or conjugated primary antibodies diluted in PBST for 1 hr at room temperature: Alexa Fluor 488 phalloidin (A12379, Thermo), goat anti-mouse Alexa Fluor 546 (A1103, Thermo), goat anti-rabbit Alexa Fluor 647 (111-605-144, Jackson ImmunoResearch, West Grove, Pa.). After washing in PBST (2 times at 5 min), nuclei were counterstained with DAPI (Molecular Probes/Invitrogen, Eugene, Oreg.) diluted in PBST for 15 min at room temperature. Following the final wash procedure (PBST, 2 times at 5 min), glass cover slips were added using Fluoro-Gel (Electron Microscopy Sciences, Hatfield, Pa.) and stored in 4° C. until imaging. TCS SP5 AOBS laser scanning confocal microscope (Leica Microsystems, Inc., Exton, Pa.) was for imaging. Vimentin radial density was calculated using the Radial Profile ImageJ plugin and normalized to radius equal to 1. Each analysis consisted of high resolution images at 400× total magnification of cross sections of different organoids.
# [5] = tested on: control cardiac organoids; test: Immunofluorescent staining of organoid sections (vimentin), control organoids; conditions: 48 hrs of exposure
# Description: as §2, with “After washing in PBST (2 times at 5 min), nuclei were counterstained with DAPI (Molecular Probes/Invitrogen, Eugene, Oreg.) diluted in PBST for 15 min at room temperature. Following the final wash procedure (PBST, 2 times at 5 min), glass cover slips were added using Fluoro-Gel (Electron Microscopy Sciences, Hatfield, Pa.) and stored in 4° C. until imaging. TCS SP5 AOBS laser scanning confocal microscope (Leica Microsystems, Inc., Exton, Pa.) was for imaging.” left out, “Each analysis consisted of high resolution images at 400× total magnification of cross sections of different organoids.” left out
# hiPSC-CMs = test: 2D hiPSC-CM culture with in vitro infarction protocol and DOX; conditions: hypoxic culture (1%) with 1 μM NE 2 days prior to 2 days DOX treatment
# Description: As a control, we performed 2D studies using hiPSC-CMs with DOX to evaluate the combined effects of an in vitro infarction protocol and DOX on hiPSC-CMs. […] Nearly 100% of cells death was found for hiPSC-CMs after 4 days of the same hypoxic culture using hiPSC-CM media with galactose but no glucose, which has been attributed to the lack of glucose in the hiPSC-CM media. In addition, extended culture of 2D hiPSC-CMs in organoid media to mimic prolonged organoid infarction protocol led to minimal and irregular hiPSC-CM contractile behavior accompanied with the reduction of αSA+ cells. In contrast to the inherent difficulties of using 2D hiPSC-CM culture systems to model post-MI responses, human infarct organoids provide a robust, biomimetic […] tissue-level context to evaluate the effects of DOX on the post-MI cardiac tissues.
# [6] = tested on: cardiac infarct organoids; test: Mechanical testing using micropipette aspiration (elastic modulus)
# Description: A micropipette aspiration was performed in media similarly to previous studies using a custom-built fluid reservoir to generate a fixed pressure of 40 cm H2O (about 3.9 kPa) in pulled micropipette to apply the suction force on test organoids.^23,24 Validation and stability of pressure changes were confirmed using an in-line 5 kPa 2-port pressure transducer with about 1 Pa sensitivity (Honeywell, Morristown, N.J.). Micropipettes were pulled to a final inner diameter of approximately 40-60 μm. Prior to and during testing, organoids were soaked in a 30 mM solution of 2,3-butanedione monoxime (BDM) (Sigma) in media for 5-10 min to eliminate contractions to reduce the effect of contractile status on tissue stiffness. Pressure was applied to the organoid surface and pictures were recorded until reaching equilibrium deformation (about 5 min) (FIG. 2F). Under the homogeneous half-space model assumptions^23, the change in length (L) from pre-deformation to equilibrium deformation was used to calculate the elastic modulus according the previously established relationship: E=3aΔp/2πL Φ(η), where E is elastic modulus, a is the inner micropipette radius, Δp is the applied pressure, Φ( ) is the wall function (under punch model assumptions), and η is the wall parameter.^24,25
# [7] = tested on: cardiac infarct organoids; test: Calcium transient imaging with two-photon light sheet microscope (beating synchronization)
# Description: To functionally interpret the transcriptomic shifts in cardiomyocyte calcium handling and arrhythmogenesis, a two-photon, laser-scanning, light sheet (2PLS) microscope was used that allowed for deeper tissue penetration with high-speed imaging (50 frames/sec) and orthogonal selected plane (about 4 μm thickness) illumination.^27 Given its strength for in situ imaging, the 2PLS microscope allowed for the visualization of calcium handling in the interior regions of 3D cardiac microtissues to study calcium handling and arrhythmogenicity across the organoids. Organoids were fabricated with GCaMP6-labeled hiPSC-CMs and calcium transient amplitudes (ΔF/F0) were measured from “cell-sized” regions of interest (ROIs) (representing individual cardiomyocytes) inside organoids. […] In particular, imaging and calcium transient profiles of synchronized edge and interior cardiomyocyte ROIs from human induced pluripotent stem cell-derived-cardiomyocyte (hiPSC-CM) spheroids were cultured in the cardiac organoid infarction protocol.
# [8] = 10 nM added to infarct organoid culture
# [9] = 20 ng/ml added during infarction protocol
compound,measurement,setting,value
"COc1cccc2c1C(=O)c1c(O)c3c(c(O)c1C2=O)C[C@@](O)(C(=O)CO)C[C@@H]3O[C@H]1C[C@H](N)[C@H](O)[C@H](C)O1 [DOX, doxorubicin]",IC50,"[1]; Homo sapiens, infarct organoids, 48 hrs of exposure starting on D10",~150 nM
same,concentration at cessation of beating,[1]; infarct organoids,1 µM
same,concentration at cessation of beating,[2],10 µM
same,IC50,"[2]; Homo sapiens, 48 hrs of exposure starting on D10",~370 nM
same,apoptosis (TUNEL analysis),[3],significantly increased apoptosis
same,dose inducing an increase in vimentin+ density,"[4]; infarct organoids, 48 hrs of exposure",0.1 µM
same,αSA staining relative to vehicle control (sarcomeric organization),"[4]; interior of infarct organoids, 0.1 μM",significantly decreases
same,dose inducing an increase in vimentin+ density,[5],1.0 µM
same,viability and contractile structures/organization of 2D hiPSC-CMs,hiPSC-CMs,exacerbation of DOX-induced reduction in viability and reduction in contractile structures/organization
Cc1sc2c(c1C)C(c1ccc(Cl)cc1)=N[C@@H](CC(=O)OC(C)(C)C)c1nnc(C)n1-2 [JQ1],vimentin+ density at the infarct organoid edge,[4]; [8],significantly reduced
same,organoid stiffness (elastic modulus),[6]; [8],significant decrease in stiffness
same,unsynchronized beating of infarct organoids,[7]; 10 nM,reduction of unsynchronization
"NC[C@H](O)c1ccc(O)c(O)c1 [NE, norepinephrine]",beat rate,"[1]; 10% O2 with 1 μM for 10 days, versus control organoids",increase in beat rate
COCCc1ccc(OCC(O)CNC(C)C)cc1 (centres unmarked) [metoprolol],NE-induced increase in beat rate,"[1]; infarct organoids cultured with 10 μM, D10",reversed
"TGF-β1: human recombinant transforming growth factor beta 1, pro-fibrotic stimulus",collagen organization and presence of αSMA+ myofibroblast-like cells,[4]; [9],further increased
same,organoid stiffness (elastic modulus),[6]; [9],significant increase in organoid stiffness
VEGF,unsynchronized beating of infarct organoids,[7]; 2 ng/ml,reduction of unsynchronization
